Laboratory results as given in PMC10902354, “Deficiency in PHD2-mediated hydroxylation of HIF2α underlies Pacak-Zhuang syndrome” (Communications Biology, 2024).

Test system: hypoxia-responsive element (HRE) reporter, HEK293A cells
Experiment: Dual-luciferase reporter assay of HIF2α transcriptional activity (VEGFA-HRE) in HEK293A cells
Format: cell-based
Settings: for HIF2α transcriptional activity, Firefly(RLU)/Renilla(RLU) (Normalized to WT Mean): Fig. 6b; for HIF2α transcriptional activity, Firefly(RLU)/Renilla(RLU) (Normalized to WT Mean) / HRE-driven transcriptional activity (in words): normoxic conditions; for HRE-driven transcriptional activity (in words): relative to HIF2α WT or other mutant; for HIF2α transcriptional activity, Firefly(RLU)/Renilla(RLU) (Normalized To WT Mean): Fig. 6a, normal oxygenated conditions
Source text: The following previously described plasmids were used in this study: pcDNA3-HA-VHL30[28] and pET-46-HIS6-PHD2[4]. pGL3-VEGFA-HRE was generated by amplifying nucleotides 1271-1797 of human VEGFA CDS (AH001553.2) using primers introducing 5’ KpnI and 3’ XhoI sites; digested PCR products were subcloned into pGL3-Basic (Promega) cut with KpnI and XhoI. pRL-SV40 was obtained from Promega. pcDNA3-HA-HIF2α has been previously described. Class 1 (D539N, A530V, P531A, Y532C) and Class 2 (M535T, G537R, P534R, Y532H) HIF2α mutants, as well as mutant P405A, were generated using QuikChange site-directed mutagenesis (Agilent) and confirmed by DNA sequencing. pcDNA3-HA-HIF2α -P405A/P531A was obtained from Addgene (Addgene plasmid # 18956)[29]. The α-HA tag antibody was obtained from Cell Signaling (C29F4). HIFα-CODD peptides were custom synthesized by Genscript and supplied at ≥ 95% purity. All synthesized peptides were C-terminally amidated, peptides used for MST binding studies and crystallography were N-terminally acetylated and peptides used for the indirect hydroxylation assays were N-terminally biotinylated. For crystallography and MST experiments peptides were dissolved directly into 50 mM Tris pH 8.0 buffer and for indirect hydroxylation assays N-terminally biotinylated peptides were initially dissolved in DMSO to create stock solutions and further diluted into aqueous buffers for immobilization on streptavidin agarose beads. The sequences of each peptide can be found in Supplementary Table 1.
HEK293A cells were maintained in DMEM (Wisent #319-015) supplemented with 10% (v/v) Fetal Bovine Serum (FBS, Wisent #098-150) in a humidified atmosphere at 37 °C and 5% CO2. Transfection complexes containing 2 μg of total DNA (0.8 ug pcDNA3-HA, 0.9 μg pGL3-VEGFa-HRE, 0.1 μg pRL-SV40, and 0.2 μg of either pcDNA3-HA-HIF2α-WT or mutant) and 8 ug Polyethyleneimine pH 7.2 (Polysciences, Cat #23966) in 400 μl OptiMEM™ Reduced Serum Medium (Gibco #31985070) were incubated for 15 min at room temperature, then were added to 5 × 10^5 HEK293A cells (diluted in 400 μl OptiMEM™) and incubated for an additional 5 min. Mixture was plated in six-well plates containing 2 ml complete medium and incubated at 37 °C, 5% CO2 for 24 h. Firefly luciferase and Renilla luciferase activity were measured with the Dual-Luciferase Reporter Assay System (Promega #E1960) according to the manufacturer’s instructions. Measurements (1 s) were recorded using a Varioskan Lux microplate reader (Thermo Fisher Scientific). For each sample, firefly RLU values were divided by corresponding Renilla RLU values.

Row | Substance | HIF2α transcriptional activity, Firefly(RLU)/Renilla(RLU) (Normalized to WT Mean) (Exp 1, 24 h) | HIF2α transcriptional activity, Firefly(RLU)/Renilla(RLU) (Normalized to WT Mean) (Exp 2, 24 h) | HIF2α transcriptional activity, Firefly(RLU)/Renilla(RLU) (Normalized to WT Mean) (Exp3, 24 h) | HIF2α transcriptional activity, Firefly(RLU)/Renilla(RLU) (Normalized to WT Mean) (mean of Exp 1-3, 24 h) | HRE-driven transcriptional activity (in words) (listed as HIF2αP405A/P531A) | HIF2α transcriptional activity, Firefly(RLU)/Renilla(RLU) (Normalized To WT Mean) (Exp 1, 24 h) | HIF2α transcriptional activity, Firefly(RLU)/Renilla(RLU) (Normalized To WT Mean) (Exp 2, 24 h) | HIF2α transcriptional activity, Firefly(RLU)/Renilla(RLU) (Normalized To WT Mean) (Exp 3, 24 h) | HIF2α transcriptional activity, Firefly(RLU)/Renilla(RLU) (Normalized To WT Mean) (Exp 4, 24 h) | HIF2α transcriptional activity, Firefly(RLU)/Renilla(RLU) (Normalized To WT Mean) (Exp 5, 24 h) | HIF2α transcriptional activity, Firefly(RLU)/Renilla(RLU) (Normalized To WT Mean) (mean of Exp 1-5, 24 h) | HRE-driven transcriptional activity (in words) (listed as P405A mutant) | HRE-driven transcriptional activity (in words) (listed as P405A mutation)
1 | HIF2a-P405A/P531A: HIF2α NODD and CODD site double mutant (Addgene plasmid 18956) | 1.594 | 4.627 | 2.493 | 2.905 | indistinguishable transcriptional activity from HIF2αP531A single mutant | – | – | – | – | – | – | – | –
2 | HIF2a-P531A: Class 1 HIF2α mutant (CODD site mutant) expressed from plasmid in HEK293A cells | 2.003 | 3.782 | 2.069 | 2.618 | – | 2.696 | 2.508 | 2.211 | 4.182 | 1.7617 | 2.672 | – | –
3 | HIF2a-P534R: Class 2 HIF2α mutant expressed from plasmid in HEK293A cells | – | – | – | – | – | 1.1133 | 1.547 | 1.102 | 1.425 | 0.8617 | 1.21 | – | –
4 | HIF2a-P405A: HIF2α NODD site mutant expressed from plasmid in HEK293A cells | 0.6521 | 1.374 | 0.7703 | 0.9323 | – | – | – | – | – | – | – | transcriptional activity comparable to wild-type HIF2α | no significant increase in HIF2α transcriptional activation activity
5 | HIF2a-M535T: Class 2 HIF2α mutant expressed from plasmid in HEK293A cells | – | – | – | – | – | 1.412 | 1.394 | 0.5168 | 1.444 | 0.9762 | 1.149 | – | –
6 | HIF2a-Y532C: Class 1 HIF2α mutant expressed from plasmid in HEK293A cells | – | – | – | – | – | 1.579 | 1.687 | 2.039 | 3.004 | 1.351 | 1.932 | – | –
7 | HIF2a-A530V: Class 1 HIF2α mutant expressed from plasmid in HEK293A cells | – | – | – | – | – | 2.033 | 1.3534 | 1.897 | 3.054 | 1.561 | 1.98 | – | –
8 | HIF2a-Y532H: Class 2 HIF2α mutant expressed from plasmid in HEK293A cells | – | – | – | – | – | 1.505 | 1.636 | 0.8256 | 1.673 | 0.9402 | 1.316 | – | –
9 | HIF2a-WT: HA-HIF2α WT expressed from pcDNA3-HA-HIF2α in HEK293A cells | 0.6881 | 1.449 | 0.8624 | 1 | – | 1.095 | 1.349 | 0.5003 | 1.339 | 0.7176 | 1 | – | –
10 | HIF2a-D539N: Class 1 HIF2α mutant expressed from plasmid in HEK293A cells | – | – | – | – | – | 2.166 | 1.679 | 1.625 | 2.569 | 1.2135 | 1.85 | – | –
11 | HIF2a-G537R: Class 2 HIF2α mutant expressed from plasmid in HEK293A cells | – | – | – | – | – | 1.297 | 1.639 | 0.7606 | 1.668 | 0.917 | 1.256 | – | –
